Drawing on paper PMC7660874 (Journal of the American Heart Association: Cardiovascular …, 2020), this text covers remaining activity for one compound.

In assay [1] the target is human TASK-1 (hTASK-1, hK2P3.1) (Homo sapiens, UniProt O14649). The experiment in a line: two-electrode voltage clamp in Xenopus oocytes at […]. It counts as cell-based. The settings on record: read-out: % of control current at 100 μmol/L. On the technique in general: Two-electrode voltage clamp holds a large cell at a set potential and records current.
Chain of human TASK-1 (hTASK-1, hK2P3.1) (O14649 whole entry): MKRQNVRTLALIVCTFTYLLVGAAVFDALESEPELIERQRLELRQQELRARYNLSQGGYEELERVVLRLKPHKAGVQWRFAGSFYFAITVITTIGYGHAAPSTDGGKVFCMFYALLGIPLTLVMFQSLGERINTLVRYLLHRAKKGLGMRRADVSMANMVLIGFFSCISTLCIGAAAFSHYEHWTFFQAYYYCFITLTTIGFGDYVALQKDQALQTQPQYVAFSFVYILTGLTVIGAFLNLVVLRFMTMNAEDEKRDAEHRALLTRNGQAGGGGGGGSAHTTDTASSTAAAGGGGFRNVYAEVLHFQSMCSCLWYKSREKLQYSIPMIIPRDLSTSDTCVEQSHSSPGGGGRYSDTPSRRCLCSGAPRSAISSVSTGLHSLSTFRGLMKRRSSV
In a further assay the target is porcine TASK-1 (pTASK-1) (Sus scrofa, UniProt A0A286ZMZ4). Described as above. The settings on record: read-out: % of control current at 100 μmol/L. Format: cell-based.
Chain of porcine TASK-1 (pTASK-1) (A0A286ZMZ4 1-401): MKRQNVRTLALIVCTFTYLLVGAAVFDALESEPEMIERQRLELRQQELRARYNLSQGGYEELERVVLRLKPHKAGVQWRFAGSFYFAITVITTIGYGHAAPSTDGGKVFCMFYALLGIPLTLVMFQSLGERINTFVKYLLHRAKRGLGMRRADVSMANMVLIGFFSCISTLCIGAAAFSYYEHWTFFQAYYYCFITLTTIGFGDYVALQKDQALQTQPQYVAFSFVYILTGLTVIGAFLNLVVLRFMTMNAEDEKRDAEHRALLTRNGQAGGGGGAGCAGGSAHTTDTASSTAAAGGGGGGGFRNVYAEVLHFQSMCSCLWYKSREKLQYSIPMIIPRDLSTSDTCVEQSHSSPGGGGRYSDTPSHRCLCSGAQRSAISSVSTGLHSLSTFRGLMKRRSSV

Take `CCCCS(=O)(=O)Nc1ccccc1C(=O)N[C@H](CC)c1ccc(OC)nc1` [A293, 2‐(butylsulfonylamino)‐N‐[(1R)‐1‐(6‐methoxy‐3‐pyridyl)propyl]‐benzamide]: the remaining activity at 100 µM in assay [1] is 21.3 ± 8.7%; on porcine TASK-1 (pTASK-1) it was 28 ± 6.8%.
